target: T1, EGFR L858R-T790M (Homo sapiens, UniProt P00533, L858R/T790M); test: EGFR degradation, Total EGFR (L858R-specific) HTRF, NCI-H1975; type: cell-based; details: Table 9B; NCI-H1975 cells, 6 hours, Total EGFR HTRF; read-out: H1975 EGFR DC50
T1 construct: NCI-H1975 (harboring EGFR heterozygous L858R-T790M mutations); host or cells: NCI-H1975
Procedure, shortened: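 HTRF read-outs: pY1068 phospho-EGFR for IC50; total EGFR (pan-EGFR in A431, L858R-specific in mutant lines) for DC50. Compounds were titrated 11 points, half-log, from 10 μM in duplicate onto cells in 10% FBS RPMI, incubated 6 h at 37°C.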

T1 sequence (P00533 25-1210 T790M/L858R): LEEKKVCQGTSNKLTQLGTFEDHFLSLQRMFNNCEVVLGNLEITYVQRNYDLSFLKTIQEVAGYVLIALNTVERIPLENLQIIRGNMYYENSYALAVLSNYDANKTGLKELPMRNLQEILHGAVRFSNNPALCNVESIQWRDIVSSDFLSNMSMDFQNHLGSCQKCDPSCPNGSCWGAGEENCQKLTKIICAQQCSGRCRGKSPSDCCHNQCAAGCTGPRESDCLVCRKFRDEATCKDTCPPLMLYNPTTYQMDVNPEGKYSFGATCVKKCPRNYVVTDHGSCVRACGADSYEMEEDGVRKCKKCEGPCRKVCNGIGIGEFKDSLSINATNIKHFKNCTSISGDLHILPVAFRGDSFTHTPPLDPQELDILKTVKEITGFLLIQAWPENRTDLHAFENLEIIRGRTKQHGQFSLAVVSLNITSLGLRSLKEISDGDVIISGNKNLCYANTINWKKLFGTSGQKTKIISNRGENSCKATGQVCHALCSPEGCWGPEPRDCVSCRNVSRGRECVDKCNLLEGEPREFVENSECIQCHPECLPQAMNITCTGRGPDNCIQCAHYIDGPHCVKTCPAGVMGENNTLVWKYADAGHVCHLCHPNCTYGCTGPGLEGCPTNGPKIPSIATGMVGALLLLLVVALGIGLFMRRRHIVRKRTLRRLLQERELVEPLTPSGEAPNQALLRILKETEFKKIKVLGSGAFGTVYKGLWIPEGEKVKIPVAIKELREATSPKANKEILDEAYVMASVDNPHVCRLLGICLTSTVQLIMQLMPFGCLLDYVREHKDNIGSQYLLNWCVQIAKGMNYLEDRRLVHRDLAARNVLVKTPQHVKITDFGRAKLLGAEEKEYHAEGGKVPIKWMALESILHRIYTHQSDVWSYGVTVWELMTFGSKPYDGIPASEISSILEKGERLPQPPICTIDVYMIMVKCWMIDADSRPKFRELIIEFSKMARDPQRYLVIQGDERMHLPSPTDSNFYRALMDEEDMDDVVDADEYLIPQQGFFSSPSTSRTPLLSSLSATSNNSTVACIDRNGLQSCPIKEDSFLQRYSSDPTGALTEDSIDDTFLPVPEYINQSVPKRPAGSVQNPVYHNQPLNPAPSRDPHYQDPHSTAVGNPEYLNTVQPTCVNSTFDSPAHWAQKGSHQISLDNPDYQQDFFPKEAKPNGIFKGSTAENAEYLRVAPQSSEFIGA

Structure (SMILES)	DC50 [nM]
Cn1nc(N2CCC(=O)NC2=O)c2cc(F)c(N3CCN(CC(=O)N4CC5(C4)CN(c4ccc(-c6cc(F)c7c(c6)C(=O)N(C(C(=O)Nc6nccs6)c6ncn8c6CCC8)C7)cc4)C5)CC3)cc21 (centres unmarked) [Compound 123, 2-(6,7-dihydro-5H-pyrrolo[1,2-c]imidazol-1-yl)-2-[6-[4-[2-[2-[4-[3-(2,4-dioxohexahydropyrimidin-1-yl)-5-fluoro-1-methyl-indazol-6-yl]piperazin-1-yl]acetyl]-2,6-diazaspiro[3.3]heptan-6-yl]phenyl]-4-fluoro-1-oxo-isoindolin-2-yl]-N-thiazol-2-yl-acetamide]	< 50
Cn1nc(N2CCC(=O)NC2=O)c2cc(F)c(N3CCC(O)(CC(=O)N4CC5(C4)CN(c4ccc(-c6cc(F)c7c(c6)C(=O)N(C(C(=O)Nc6nccs6)c6ncn8c6CCC8)C7)cc4)C5)CC3)cc21 (centres unmarked) [Compound 127, 2-(6,7-dihydro-5H-pyrrolo[1,2-c]imidazol-1-yl)-2-[6-[4-[2-[2-[1-[3-(2,4-dioxohexahydropyrimidin-1-yl)-5-fluoro-1-methyl-indazol-6-yl]-4-hydroxy-4-piperidyl]acetyl]-2,6-diazaspiro[3.3]heptan-6-yl]phenyl]-4-fluoro-1-oxo-isoindolin-2-yl]-N-thiazol-2-yl-acetamide]	< 50
O=C1CC[C@H](Nc2ccc(N3CCC(O)(CC(=O)N4CC5(C4)CN(c4ccc(-c6cc(F)c7c(c6)C(=O)N(C(C(=O)Nc6nccs6)c6ncn8c6C[C@@H](F)C8)C7)cc4)C5)CC3)c(F)c2)C(=O)N1 (stereo partly drawn) [Compound 131, 2-[6-[4-[2-[2-[1-[4-[[(3S)-2,6-dioxo-3-piperidyl]amino]-2-fluoro-phenyl]-4-hydroxy-4-piperidyl]acetyl]-2,6-diazaspiro[3.3]heptan-6-yl]phenyl]-4-fluoro-1-oxo-isoindolin-2-yl]-2-[(6R)-6-fluoro-6,7-dihydro-5H-pyrrolo[1,2-c]imidazol-1-yl]-N-thiazol-2-yl-acetamide]	< 50
O=C1CC[C@@H](Nc2ccc(N3CCC(O)(CC(=O)N4CC5(C4)CN(c4ccc(-c6cc(F)c7c(c6)C(=O)N(C(C(=O)Nc6nccs6)c6ncn8c6C[C@@H](F)C8)C7)cc4)C5)CC3)c(F)c2)C(=O)N1 (stereo partly drawn) [Compound 132, 2-[6-[4-[2-[2-[1-[4-[[(3R)-2,6-dioxo-3-piperidyl]amino]-2-fluoro-phenyl]-4-hydroxy-4-piperidyl]acetyl]-2,6-diazaspiro[3.3]heptan-6-yl]phenyl]-4-fluoro-1-oxo-isoindolin-2-yl]-2-[(6R)-6-fluoro-6,7-dihydro-5H-pyrrolo[1,2-c]imidazol-1-yl]-N-thiazol-2-yl-acetamide]	< 50
Cn1nc(N2CCC(=O)NC2=O)c2ccc(C3CCN(CC(=O)N4CC5(C4)CN(c4ccc(-c6cc(F)c7c(c6)C(=O)N(C(C(=O)Nc6nccs6)c6ncn8c6CCC8)C7)cc4)C5)CC3F)cc21 (centres unmarked) [Compound 133, 2-(6,7-dihydro-5H-pyrrolo[1,2-c]imidazol-1-yl)-2-[6-[4-[2-[2-[4-[3-(2,4-dioxohexahydropyrimidin-1-yl)-1-methyl-indazol-6-yl]-3-fluoro-1-piperidyl]acetyl]-2,6-diazaspiro[3.3]heptan-6-yl]phenyl]-4-fluoro-1-oxo-isoindolin-2-yl]-N-thiazol-2-yl-acetamide]	< 50
O=C1CCC(Nc2cc(F)c(N3CCC(O)(CC(=O)N4CC5(C4)CN(c4ccc(-c6cc(F)c7c(c6)C(=O)N(C(C(=O)Nc6nccs6)c6ncn8c6CCC8)C7)cc4)C5)CC3)cc2F)C(=O)N1 (centres unmarked) [Compound 135, 2-(6,7-dihydro-5H-pyrrolo[1,2-c]imidazol-1-yl)-2-[6-[4-[2-[2-[1-[4-[(2,6-dioxo-3-piperidyl)amino]-2,5-difluoro-phenyl]-4-hydroxy-4-piperidyl]acetyl]-2,6-diazaspiro[3.3]heptan-6-yl]phenyl]-4-fluoro-1-oxo-isoindolin-2-yl]-N-thiazol-2-yl-acetamide]	< 50
O=C1CC[C@H](Nc2ccc(N3CCC(O)(CC(=O)N4CC5(C4)CN(c4ccc(-c6cc(Cl)c7c(c6)C(=O)N(C(C(=O)Nc6nccs6)c6ncn8c6CCC8)C7)cc4)C5)CC3)c(F)c2)C(=O)N1 (stereo partly drawn) [Compound 136, 2-[4-chloro-6-[4-[2-[2-[1-[4-[[(3S)-2,6-dioxo-3-piperidyl]amino]-2-fluoro-phenyl]-4-hydroxy-4-piperidyl]acetyl]-2,6-diazaspiro[3.3]heptan-6-yl]phenyl]-1-oxo-isoindolin-2-yl]-2-(6,7-dihydro-5H-pyrrolo[1,2-c]imidazol-1-yl)-N-thiazol-2-yl-acetamide]	< 50
Cn1nc(N2CCC(=O)NC2=O)c2ccc([C@H]3CCN(C(=O)CN4CCC5(CC4)CN(c4ccc(-c6cc(F)c7c(c6)C(=O)N(C(C(=O)Nc6nccs6)c6ncn8c6CCC8)C7)cc4)C5)CC3(F)F)cc21 (stereo partly drawn) [Compound 140, 2-(6,7-dihydro-5H-pyrrolo[1,2-c]imidazol-1-yl)-2-[6-[4-[7-[2-[(4R)-4-[3-(2,4-dioxohexahydropyrimidin-1-yl)-1-methyl-indazol-6-yl]-3,3-difluoro-1-piperidyl]-2-oxo-ethyl]-2,7-diazaspiro[3.5]nonan-2-yl]phenyl]-4-fluoro-1-oxo-isoindolin-2-yl]-N-thiazol-2-yl-acetamide]	< 50
Cn1nc(N2CCC(=O)NC2=O)c2ccc([C@@H]3CCN(C(=O)CN4CCC5(CC4)CN(c4ccc(-c6cc(F)c7c(c6)C(=O)N(C(C(=O)Nc6nccs6)c6ncn8c6CCC8)C7)cc4)C5)CC3(F)F)cc21 (stereo partly drawn) [Compound 141, 2-(6,7-dihydro-5H-pyrrolo[1,2-c]imidazol-1-yl)-2-[6-[4-[7-[2-[(4S)-4-[3-(2,4-dioxohexahydropyrimidin-1-yl)-1-methyl-indazol-6-yl]-3,3-difluoro-1-piperidyl]-2-oxo-ethyl]-2,7-diazaspiro[3.5]nonan-2-yl]phenyl]-4-fluoro-1-oxo-isoindolin-2-yl]-N-thiazol-2-yl-acetamide]	50 to 150
O=C1CC[C@H](Nc2ccc(N3CCC(O)(CC(=O)N4CCC(n5cc(-c6cc(F)c7c(c6)C(=O)N(C(C(=O)Nc6nccs6)c6ncn8c6CCC8)C7)cn5)CC4)CC3)c(F)c2)C(=O)N1 (stereo partly drawn) [Compound 142, 2-(6,7-dihydro-5H-pyrrolo[1,2-c]imidazol-1-yl)-2-[6-[1-[1-[2-[1-[4-[[(3S)-2,6-dioxo-3-piperidyl]amino]-2-fluoro-phenyl]-4-hydroxy-4-piperidyl]acetyl]-4-piperidyl]pyrazol-4-yl]-4-fluoro-1-oxo-isoindolin-2-yl]-N-thiazol-2-yl-acetamide]	< 50
Cn1nc(N2CCC(=O)NC2=O)c2ccc([C@H]3CCN(C(=O)CN4CC5(CCN(c6ccc(-c7cc(F)c8c(c7)C(=O)N(C(C(=O)Nc7nccs7)c7ncn9c7CCC9)C8)cc6)CC5)C4)CC3(F)F)cc21 (stereo partly drawn) [Compound 143, 2-(6,7-dihydro-5H-pyrrolo[1,2-c]imidazol-1-yl)-2-[6-[4-[2-[2-[(4R)-4-[3-(2,4-dioxohexahydropyrimidin-1-yl)-1-methyl-indazol-6-yl]-3,3-difluoro-1-piperidyl]-2-oxo-ethyl]-2,7-diazaspiro[3.5]nonan-7-yl]phenyl]-4-fluoro-1-oxo-isoindolin-2-yl]-N-thiazol-2-yl-acetamide]	50 to 150
